Test results reported in patent US20220323468A1, “REDUCED NICOTINAMIDERIBOSIDES FOR THE TREATMENT/PREVENTION OF LIVER DISEASE” (SOCIETE DES PRODUITS NESTLE S.A., priority 2019, published 2022).
“Also recorded” adds a separate entry of the source.

Key:
[1] = test system: equilibrative nucleoside transporters (ENTs); assay: NRH-induced NAD+ synthesis under ENT blockage; format: cell-based; conditions: in the presence of S-(4-nitrobenzyl)-6-thioinosine (NBTI)
Text: In order to understand the exact path by which NRH synthesizes NAD+, we initially evaluated whether NRH, could be transported into the cell by equilibrative nucleoside transporters (ENTs).

[2] = Plasma NRH, NR and NAM after oral administration in mice; format: in vivo
Experimental: (§1) 8 week-old C57BI/6NTac mice were orally gavaged with either saline (as vehicle), NR (500 mg/kg) or NRH (500 mg/kg). After 1 hour, liver, skeletal muscle and kidney NAD^+ levels were evaluated. All results are expressed as mean+/− SEM of n=5 mice per group. * indicates statistical difference at p<0.05 vs. vs. saline-treated mice. # indicates statistical difference at p<0.05 vs. NR treated mice.
(§2) Levels of NRH and other NAD-related metabolites in biological samples were obtained by using a cold liquid-liquid extraction using a mixture of methanol:water:chloroform in 5:3:5 (v/v), from which the polar phase was recovered for hydrophilic interaction ultra-high performance liquid chromatography mass spectrometry (UHPLC-MS) analysis. The UHPLC consisted of a binary pump, a cooled autosampler, and a column oven (DIONEX Ultimate 3000 UHPLC+ Focused, Thermo Scientific), connected to a triple quadrupole spectrometer (TSQ Vantage, Thermo Scientific) equipped with a heated electrospray ionisation (H-ESI) source. Of each sample, 2 μL were injected into the analytical column (2.1 mm×150 mm, 5 μm pore size, 200 Å HILICON iHILIC®-Fusion(P)), guarded by a pre-column (2.1 mm×20 mm, 200 Å HILICON iHILIC®-Fusion(P) Guard Kit) operating at 35° C. The mobile phase (10 mM ammonium acetate at pH 9, A, and acetonitrile, B) was pumped at 0.25 mL/min flow rate over a linear gradient of decreasing organic solvent (0.5-16 min, 90-25% B), followed by re-equilibration for a total run time of 30 min. The MS operated in positive mode at 3500 V with multiple reaction monitoring (MRM). The software Xcalibur v4.1.31.9 (Thermo Scientific) was used for instrument control, data acquisition and processing. Retention time and mass detection was confirmed by authentic standards.
(§3) Oral administration of NRH led to very similar results to those observed after IP administration. […] NRH was detectable in plasma 1 h after oral administration. In contrast, NR levels were undetectable at 1 h after NR administration.

[3] = set-up: species or system mice; conditions: mouse, in vivo, 250 mg/kg
Experimental: 8 week-old C57Bl/6NTac mice were orally gavaged with either saline (as vehicle), and NRH (250 mg/kg). After 2 hours, liver, skeletal muscle and kidney NRH levels were evaluated. All results are expressed as mean+/− SEM of n=4 mice per group, as areas under the signal by LC-MS analysis, corrected by total protein amount of tissue.
as §2

[4] = target: T1, adenosine kinase (AK) (Mus musculus, UniProt P55264); assay: NRH-induced NAD+ synthesis with adenosine kinase inhibitors; format: cell-based; conditions: metabolomic analyses, upon inhibition of AK
T1 construct: endogenous in cells; host or cells: AML12 cells
T1 sequence (P55264 whole entry): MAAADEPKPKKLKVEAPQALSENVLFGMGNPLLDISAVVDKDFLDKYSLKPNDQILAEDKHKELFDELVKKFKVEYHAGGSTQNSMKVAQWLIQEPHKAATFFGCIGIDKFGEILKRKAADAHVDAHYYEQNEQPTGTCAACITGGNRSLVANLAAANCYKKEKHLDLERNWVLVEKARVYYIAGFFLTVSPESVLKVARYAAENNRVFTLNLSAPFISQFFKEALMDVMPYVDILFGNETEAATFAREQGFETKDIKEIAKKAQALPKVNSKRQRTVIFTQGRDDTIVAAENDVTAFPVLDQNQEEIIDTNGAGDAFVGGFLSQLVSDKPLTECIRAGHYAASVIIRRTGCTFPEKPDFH
Experimental: AML12 cells were treated with an adenosine kinase inhibitor (5-IT; […]) for 1 hour prior to NRH treatment at the doses indicated. Then, 1 hour later, acidic extracts were obtained to measure NAD^+ levels.

[5] = Intrahepatic and hepatic mitochondrial NAD+ after IP injection in mice; format: in vivo; conditions: NR 500 mg/kg or equimolar amounts, 1 hour later
Experimental: 10 week old male mice were fasted for 2 hours prior to intraperitoneal injection (IP) with saline as control/vehicle, nicotinamide riboside (NR; 500 mg/kg) or equimolar amounts of dihydronicotinamide riboside (NRH) or nicotinamide (NAM). Then, 1 hour later, mice were euthanized and a piece of liver was snap frozen while another piece was used for mitochondrial isolation following a published procedure (Frezza et al., 2007; Nature Protocols). The piece of snap frozen liver was weighted and submitted to acidic extraction to evaluate NAD+ levels through enzymatic methods. For isolated mitochondria, protein was quantified and 200 micrograms of protein were used for acidic extraction and NAD+ measurement through enzymatic methods. […] All results are mean+/− SEM of n=4 animals per group. * indicates statistical difference at p<0.05 vs. control/vehicle group.

[6] = Stability in isolated mouse plasma; format: in vitro ADME
Text: (§4) NR degradation to NAM has been proposed as a limitation for its pharmacological efficacy. To evaluate whether NRH was also susceptible to degradation to NAM, we spiked NRH or NR in isolated mouse plasma. […] We also tested the stability of NRH in other matrixes.

[7] = test system: intracellular NRH, NMNH, NR and NMN; assay: Intracellular NAD+ related metabolites after treatment (UHPLC-MS); format: cell-based
Text: as §2, with “standards. […]” for “standards.”

[8] = Stability in water; format: physicochemical; conditions: pH=7, at room temperature, 48 h
Text: as §4

[9] = test system: 3T3 fibroblasts; assay: NAD+ levels in 3T3 fibroblasts after NRH treatment; format: cell-based
[10] = Stability in FBS supplemented media
Text: as §4

[11] = Circulating NAM, NRH and NR after IP injection in mice; format: in vivo
Text: as §2
(§5) The above results prompted us to test whether NRH could act as an effective NAD+ precursor in vivo. For this, we first intraperitoneally (IP) injected mice with either NR or NRH (500 mg/kg).

[12] = target: T2, NAMPT (Mus musculus, UniProt Q99KQ4); assay: NRH-induced NAD+ synthesis with NAMPT inhibitor FK866; format: cell-based; conditions: experiments using FK866, a NAMPT inhibitor
T2 construct: endogenous in cells
T2 sequence (Q99KQ4 whole entry): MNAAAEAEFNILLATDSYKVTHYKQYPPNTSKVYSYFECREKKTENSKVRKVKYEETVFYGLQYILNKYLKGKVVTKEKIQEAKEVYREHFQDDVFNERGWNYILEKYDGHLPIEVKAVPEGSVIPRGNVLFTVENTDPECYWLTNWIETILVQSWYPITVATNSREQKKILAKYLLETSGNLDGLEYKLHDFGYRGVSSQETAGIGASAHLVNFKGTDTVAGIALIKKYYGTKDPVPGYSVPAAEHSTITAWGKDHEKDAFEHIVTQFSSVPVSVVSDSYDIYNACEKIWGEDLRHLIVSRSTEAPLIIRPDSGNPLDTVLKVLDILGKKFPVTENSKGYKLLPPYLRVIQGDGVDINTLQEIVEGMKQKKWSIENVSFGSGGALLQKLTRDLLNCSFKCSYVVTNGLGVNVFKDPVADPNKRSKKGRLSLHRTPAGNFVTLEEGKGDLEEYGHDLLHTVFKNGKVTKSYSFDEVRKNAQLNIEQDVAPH
Text: (§6) The action of NRH was also NAMPT-independent, based on experiments using FK866, a NAMPT inhibitor. If NRH led to NAD+ synthesis via the formation of NMNH, this hypothetical path would require the phosphorylation of NRH into NMNH. Given the essential and rate-limiting role of NRK1 in NR phosphorylation, we wondered whether the ability of NRH to boost NAD+ levels was NRK1 dependent. To answer this question, we evaluated NRH action in primary hepatocytes from either control or NRK1 knockout (NRK1KO) mice. […] Further, they rule out the possibility that NRH-induced NAD+ […] is driven by NRH oxidation into NR.

[13] = test system: primary hepatocytes from NRK1 knockout (NRK1KO) mice; assay: NAD+ levels in primary hepatocytes from control or NRK1 knockout mice; format: cell-based; conditions: after 1 hour of treatment
Text: as §6

[14] = test system: C2C12 myotubes; assay: NAD+ levels in C2C12 myotubes after NRH treatment; format: cell-based
[15] = Tissue NAD+ levels after IP injection in mice; format: in vivo; conditions: IP 500 mg/kg, after 1 h
Experimental: as §5

[16] = test system: INS1-cells; assay: NAD+ levels in INS1-cells after NRH treatment; format: cell-based
[17] = Hepatic NAD+ levels after oral administration in mice; format: in vivo; conditions: compared with NR
Experimental: as §1, §3

[18] = test system: AML12 hepatocytes; assay: Intracellular NAD+ levels in AML12 hepatocytes (dose-response and time course); format: cell-based
Experimental: Even at such relatively low dose, NRH achieved similar increases in intracellular NAD+ levels to those reached with NR at 50-fold higher concentrations. NRH achieved maximal effects on NAD+ synthesis around the millimolar range, managing to increase intracellular NAD+ levels by more than 10-fold.
NRH actions were also extremely fast (FIG. 3), as significant increases in NAD+ levels were observed within 5 minutes after NRH treatment.

[19] = spiked in isolated mouse plasma, 2 h of incubation

NC(=O)C1=CN([C@@H]2O[C@H](CO)[C@@H](O)[C@H]2O)C=CC1 [NRH]
capacity as extracellular NAD+ precursor under ENT blockage [1]: largely lost its capacity as an extracellular NAD+ precursor
NRH concentration in plasma ([2]; mice, after oral gavage): 11.16 ± 1.74 µM
administered compound in plasma ([2]; mouse, in vivo, po): detectable
NRH in kidney [3]: found intact, in high levels
NRH in liver [3]: found intact, in high levels
NRH in muscle [3]: found intact, in high levels
generation of NMNH, NADH and NAD+ from NRH [4]: fully blunted
intrahepatic NAD+ [5]: increase intrahepatic NAD+
hepatic mitochondrial NAD+ levels ([5]; isolated liver mitochondria): only NRH increases mitochondrial NAD+ levels
NR production in plasma ([6]; incubation in isolated plasma): did not lead to NR production
compound levels in plasma [6, 19]: remained stable
generation of NAM in plasma [6, 19]: NAM was not generated; also recorded: did not significantly alter NAM levels
intracellular detection of NRH and NMNH ([7]; 5 minutes after treatment): could be detected intracellularly
intracellular NR and NMN ([7]; after treatment, compared with NR): increase in intracellular NR and NMN, greater than that triggered by NR itself
stability in water [8]: certified NRH stability
NAD+ levels [9]: highly elevated
degradation to NAM [10]: did not degrade to NAM
NAM levels in circulation ([11]; mice, IP 500 mg/kg): only a very mild increase
NR in circulation ([11]; mouse, in vivo, ip): much higher levels than those detected after NR injection itself
NRH in circulation ([11]; mouse, in vivo, ip): detectable in circulation
dependence of NAD+ increasing action on NAMPT [12]: NAMPT-independent
NAD+ levels in NRK1KO derived primary hepatocytes [13]: not affected by NRK1 deficiency
NAD+ levels [14]: highly elevated
NAD+ levels in kidney [15]: increased NAD+ levels
NAD+ levels in liver [15]: increased NAD+ levels
NAD+ levels in muscle [15]: increased NAD+ levels
NAD+ levels [16]: highly elevated
effect on hepatic NAD+ levels [17]: more potent effect on hepatic NAD+ levels than NR
time to significant increase in NAD+ levels after treatment ([18]; AML12 hepatocytes, FIG. 3): ≤ 5 min
ability to increase intracellular NAD+ ([18]; AML12 hepatocytes, compared with NR): superior to that of NR
concentration at which NAD+ levels are significantly increased ([18]; AML12 hepatocytes, dose-response, FIG. 2): 10 µM
fold higher NR concentration needed to reach similar increases in intracellular NAD+ ([18]; NRH at 10 μM versus NR): 50 fold
maximal increase of intracellular NAD+ levels ([18]; around the millimolar range): more than 10 fold
